Entries after “also recorded” stand apart in the source; their conditions may differ.
Assays:
[1] = tested on: normal human bronchial epithelial cells; assay: LAP adhesion assay (xCELLigence cell index), bronchial epithelial cells; assay type: cell-based; details: normal bronchial epithelial cells (express αvβ6)
From the text: (§1) Two latency associated peptide (LAP) adhesion binding assays were devised using primary human lung cells, including normal (healthy) human bronchial epithelial cells and human lung fibroblasts (healthy and IPF).
Human bronchial epithelial cells are known to express αvβ6 integrin in culture.

[2] = tested on: IPF-derived human lung fibroblasts; assay: LAP adhesion assay (xCELLigence cell index), lung fibroblasts; assay type: cell-based; details: IPF-derived lung fibroblasts (express αvβ1)
Protocol: as §1
Human lung fibroblasts derived from normal and IPF lung tissue are known to express αvβ1 integrin. […] In the assay, the IPF-derived human lung fibroblasts were separately incubated with: the αvβ1-selective small molecule inhibitor; the selective antibody αvβ6 inhibitor, 3G9; and compound 5.

SMAD3 phosphorylation = assay: pSMAD3/SMAD3 in lung tissue and BALF of healthy mice; assay type: in vivo, mouse; details: 4 days of treatment, dose dependent
[3] = tested on: Type I Collagen gene Col1a1 expression; assay: Precision cut lung slices of mice under acute bleomycin exposure; assay type: cell-based, mouse; details: slices cultured 3 days; integrin inhibitors at IC50, pan-αv and ALK5 inhibitors at 10x IC50
lung Col1a1 expression [4] = assay: Precision cut lung slices of mice under chronic bleomycin exposure (single vs dual integrin inhibition); assay type: cell-based, mouse; details: slices cultured 7 days
Protocol: Mice (C57BL/6) were administered 3 U/kg of bleomycin (Teva Pharmaceuticals; North Wales, PA) on Day 0 and 1 U/kg of bleomycin on days 14, 28, 42 and 56 via oropharyngeal aspiration while under anesthesia. At day 70, 14 days after the final bleomycin insult, precision cut lung slices were obtained. Following euthanization, 2% low gelling temp agarose was injected into the mouse lungs via the trachea. […] The lobes were then subjected to precision slicing to obtain samples for culture using a microtome (Compresstome VF-300-0Z, Precisionary; Greenville, NC). Individual slices were distributed in a multiwell culture plate and cultured for 7 days under control (DMSO) and test compound conditions. […]
During the culture period, slices in the control group were treated with DMSO and slices in the test group were treated with a DMSO solution of one of: the selective antibody αvβ6 inhibitor 3G9; the αvβ1-selective small molecule inhibitor; a combination of the selective antibody αvβ6 inhibitor 3G9 and the αvβ1-selective small molecule inhibitor; compound 5; and the small molecule ALK5 inhibitor. The selective αvβ1 and αvβ6 integrin inhibitors were analyzed at ≥ their respective IC90 concentrations for inhibition of TGF-beta activation. […] The small molecule ALK5 inhibitor was analyzed at 10x its reported IC50 value.

lung Col1a1 expression [5] = assay: Precision cut lung slices of mice under chronic bleomycin exposure (vs pirfenidone and nintedanib); assay type: cell-based, mouse; details: slices cultured 7 days; nintedanib and pirfenidone at 10x therapeutic concentrations
Protocol: Mice (C57BL/6) were administered 3 U/kg of bleomycin (Teva Pharmaceuticals; North Wales, PA) on Day 0 and 1 U/kg of bleomycin on days 14, 28, 42 and 56 via oropharyngeal aspiration while under anesthesia. At day 70, 14 days following the final bleomycin insult, precision cut lung slices were obtained. Following euthanization, 2% low gelling temp agarose was injected into the mouse lungs via the trachea. […] The lobes were then subjected to precision slicing to obtain samples for culture using a microtome (Compresstome VF-300-0Z, Precisionary; Greenville, NC). Individual slices were distributed in a multiwell culture plate and cultured for 7 days under control (DMSO) and test compound conditions. The viability of the slices over the course of culturing was confirmed by WST-1 assay of mitochondrial activity.
During the culture period, slices in the control group were treated with DMSO and slices in the test group were treated with a DMSO solution of one of: compound 5; nintedanib; pirfenidone; a combination of nintedanib and compound 5; a combination of pirfenidone and compound 5; or the small molecule ALK5 inhibitor. Compound 5 was […] effective to equal or exceed its respective IC50 values at αvβ6 and αvβ1. The small molecule ALK5 inhibitor was analyzed at 10x its reported IC50 value. Nintendanib and pirfenidone were analyzed at concentrations 10x their reported therapeutic concentrations.

lung Col1a1 expression [6] = assay: Precision cut lung slices from human IPF explants, 3 days; assay type: cell-based; details: 3G9 ≥400 ng/mL, compound 5 179 nM, ALK5 inhibitor 1 µM
From the text: Explanted lung tissue was obtained from human IPF subjects and inflated with agarose as described in the preceding examples. Biopsy cores were obtained from the agarose-inflated lung tissue. The biopsy cores were subjected to precision slicing to obtain several hundred µm thick. Individual slices were distributed in a multiwell culture plate and cultured for 3 days under control (DMSO) and test compound conditions. The viability of the slices over the course of culturing was confirmed by WST-1 assay of mitochondrial activity.

COL1A1 expression = assay: PCLS from human IPF lung tissue, 7 days: COL1A1 expression; assay type: cell-based
Protocol: PCLS from 5-7 idopathic pulmonary fibrosis (IPF) lung tissue samples were cultured for seven days with one of: DMSO; Compound 5 at 200 nM; nintedanib at 75 nM; pirfenidone at 50 µm; a combination of Compound 5 at 200 nM and nintedanib at 75 nM; a combination of Compound 5 at 200 nM and pirfenidone at 50 µm; or an Alk5 inhibitor at 1 µm. […] FIG. 6D is a bar graph showing relative expression of COL1A1 in precision cut lung slices (PCLS) from idopathic pulmonary fibrosis (IPF) lung tissue upon exposure to Comopund 5, clinical standard of care compounds nintedanib (Nin) and pirfenidone (Pirf), and an ALK5 inhibitor, all versus DMSO control.
PCLS from a single IPF lung tissue sample were cultured for seven days with Compound 5 at concentrations of 200 pM, 2 nM, 60 nM, 200 nM, and 1 µM, along with 0.1% DMSO control and an Alk5 inhibitor at 1 µM. […] COL1A1 expression is also graphed for the PCLS in the presence of 0.1% DMSO control, and an Alk5 inhibitor at 1 µM.

[7] = Phase 2a trial in IPF: pharmacokinetics; assay type: in vivo, human; details: IPF participants
From the text: Based on sparse sampling, overall Compound 5 pharmacokinetics and % unbound in IPF were consistent with that of previous studies. […] Overall % unbound was ~0.3 to 0.5%. Full PK curve will be predicted using population PK model to project AUC0_24 and Cmax.

In the case of `COCCN(CCCCc1ccc2c(n1)NCCC2)CC[C@H](Nc1ncnc2ccccc12)C(=O)O` [Compound 5, (S)-4-((2-methoxyethyl)(4-(5,6,7,8-tetrahydro-1,8-naphthyridin-2-yl)butyl)amino)-2-(quinazolin-4-ylamino)butanoic acid], the “inhibition of cell adhesion to LAP” value [1] is reported as “substantially inhibited”, the “inhibition of cell adhesion to LAP” value [2] is reported as “substantially inhibited” and the “SMAD3 phosphorylation (pSMAD3/SMAD3) in cells isolated from BALF, % of the untreated levels” value (SMAD3 phosphorylation) is reported as “approximately 50%”. The “SMAD3 phosphorylation (pSMAD3/SMAD3) in lung tissue, % of the untreated levels” value (SMAD3 phosphorylation) was “approximately 50%”, the “Type I Collagen gene Col1a1 expression vs DMSO control” value [3] was “decreased Type I Collagen gene Col1a1 expression substantially” and the “lung Col1a1 expression vs DMSO control” value (lung Col1a1 expression [4]) was “decreased lung Col1a1 expression substantially”. The “lung Col1a1 expression vs DMSO control” value (lung Col1a1 expression [5]) was “substantial, statistically significant”, the “lung Col1a1 expression vs DMSO control” value (lung Col1a1 expression [6]) was “substantial, statistically significant” and the “reduction of COL1A1 expression” value (COL1A1 expression; Compound 5 200 nM, nintedanib 75 nM, pirfenidone 50 µM, 5-7 IPF lungs) was 43%. The “concentration with significant reduction of COL1A1 expression” value (COL1A1 expression; single IPF lung, 200 pM to 1 µM tested) was no less than 2 nM, the “reduction in COL1A1 expression at concentrations with significant effect” value (COL1A1 expression; single IPF lung, Compound 5 ≥ 2 nM) was no less than 47% and the “dose proportionality of plasma concentrations” value ([7]; 40, 80, 160 mg once daily) was “generally dose proportional increases; also recorded: increased approximately proportionally with dose”. The fraction unbound ([7]; human, in vivo) was 0.003 to 0.005.

Source: patent publication US20230293519A1, “INTEGRIN INHIBITORS AND USES THEREOF IN COMBINATION WITH OTHER AGENTS” (Pliant Therapeutics, Inc., priority 2021, published 2023)
